# Laboratory results as given in US8470763B2, “Alpha-amino-N-substituted amides, pharmaceutical composition containing them and uses thereof” (Shanghai Institute of Materia Medica Chinese Academy of …, priority 2007, dated 2013).
# Where two headings read alike, the source gives them in different places.
# How the values were obtained:
# [1] = test system: MDA-MB-435S human breast cancer cells; test: MTT assay, proliferation of MDA-MB-435S cells; type: cell-based; conditions: 72 h
# Experimental: The experiments for evaluating the antineoplasmic activities of the compounds according to the present invention were carried out, and the compounds' antineoplasmic activities in vitro was evaluated by determining the inhibitory activities thereof against the proliferation of MDA-MB-435S human breast cancer cells.
# The antineoplasmic activities were determined by using the MTT assay, which is based on the metabolic reduction of 3-(4,5-dimethylthylthiazol-2-yl)-2,5-diphenyl tetrazolium bromide (MTT). The dehydrogenases, which are related to NADP (niacinamide adenine dinucleotide phosphate, coenzyme) and present in mitochondrions of living cells, can reduce the yellow MTT to an insoluble, dark purple formazan. […] After the formazan is dissolved in DMSO, the optical density is determined on an ELISA Reader at the wavelength of 550/690 nm.
# (§1) The adhered MDA-MB-4355 cells in logarithmic growth phase, were digested by 0.05% trypsogen, counted and formulated into a cell suspension with a medium. After counted, the suspension was inoculated on a 96-well plate with 3000 cells and 100 μl medium per well. The inoculated 96-well plate was placed overnight in an incubator at 37 with 5% CO2 to allow the cells to adhere to the wall. On the next day, the administration of the drugs started. Before the administration, into some of the control wells, each was added 20 μl of the MTT solution (5 mg/ml) without removing the medium therein. After incubated for 3 h, the absorption at A550/690 was recorded as the initial cell concentration. For the drug wells, each was added into 100 μl of medium containing 2 μl of compound solution. For the control wells which use DMSO as background control, each was also added into 100 μl of medium containing 2 μl of DMSO. In addition, each experiment was carried out with adriamycin as the positive control. Subsequently, the 96-well plate was incubated in an incubator at 37 with 5% CO2 for 72 h. each compound was tested in triplicate wells (6 μl of compound solution was put into a sterilized eppendorf centrifuge tube, then 300 μl of medium was added and mixed well, and the mixture was distributed into 3 wells respectively), and at six concentrations which form a gradient. 3 days (72 h) later, 40 μl of MTT solution (5 mg/ml) was put into each well directly (without sucking off the medium therein), and the plate was incubated in the incubator for 3 h and then taken out. The liquid in each well was sucked off, and then 100 μl of DMSO was put into each well to dissolve the crystal completely with slight shake. The absorbance of the solution in each well was determined at 550/690 nm on an ELISA Reader as the cell density after treated with the compound. The growth inhibition of compound against breast cancer cells MDA-MB-435S was represented by the cell survival rate, and IC50 was determined from the profile of cell survival rate vs compound concentration. The calculating formula was as follows: cell survival rate=[(cells+compound)A550/690/(cells+compound vector DMSO)A550/690]×100%
# [2] = test system: lung adenocarcinoma cells A549; test: MTT assay, A549 cells; type: cell-based; conditions: Homo sapiens, 72 h
# Experimental: as §1
# (§2) MDA-MB-435S: human breast cancer cells; HCT116: colon cancer cells; A549: lung adenocarcinoma cells; Hela: uterine cervix cancer cells.
# (§3) The tests were performed in the same manner as that of experimental example 1, except that for Hela cells, after counted, each well was seeded with 1000 cells and 100 μl of medium on a 96-well plate.
# [3] = test system: colon cancer cells HCT116; test: MTT assay, HCT116 cells; type: cell-based; conditions: Homo sapiens, HCT-116, 72 h
# Experimental: as §1, §2, §3
# [4] = test system: 7404 (Liver Cancer); test: SRB assay, 7404; type: cell-based; conditions: 72 h, read-out: IC50 (μM) (mean ± SD)
# Experimental: (§4) Experimental method: The antineoplasmic activities in vitro of the compounds were determined by SRB assay. The detailed procedure was as follows. The cells in the logarithmic growth phase were inoculated on a 96-well microculture plate with a suitable density (100 μl/well), and allowed to attach overnight, followed by addition of the compound at different concentrations to be treated for 72 h. For each concentration, the test was carried out in triplicate wells, and included control wells containing the aqueous medium of normal saline and a blank well containing all medium without cells for zeroing. After cultured overnight, the cells were treated with the compound at different concentrations for 72 h. After the treatment, the culture medium was removed, and the cells were fixed with 10% (wt/vol) trichloroacetic acid (100 μL/well) at 4° C. for 1 h. The cells were then washed with distilled water for 5 times, and died at room temperature, followed by addition of a SRB solution (4 mg/mL, dissolved in 1% glacial acetic acid) at 100 μL/well. The cells were incubated and stained at room temperature for 15 min, then washed with 1% glacial acetic acid for 5 times to remove the uncombined SRB, and died at room temperature. 100 μL of 10 mM Tris solution was added in each well, and the Optical Density (OD) were measured at a wavelength of 560 nm on a VERSMax ELISA Reader (Molecule Devices). The growth inhibition of the compound against tumor cells was calculated according to the following equation: Growth inhibition (%)=(ODcontrol−ODtreated)/ODcontrol×100%.
# (§5) IC50 (the concentration of the sample compound that is required for 50% inhibition of cell growth) was calculated by using the Logit method based on the measurement, and each test was repeated for 3 times to calculate the mean value and standard deviation.
# [5] = test system: MDA-MB-435 (Breast Cancer); test: SRB assay, MDA-MB-435; type: cell-based; conditions: Homo sapiens, 72 h, read-out: IC50 (μM) (mean ± SD)
# Experimental: as §4, §5
# [6] = test system: SMMC-7721 (Liver Cancer); test: SRB assay, SMMC-7721; type: cell-based; conditions: Homo sapiens, 72 h, read-out: IC50 (μM) (mean ± SD)
# Experimental: as §4, §5
# [7] = test system: HMEC (Others); test: SRB assay, HMEC; type: cell-based; conditions: Homo sapiens, 72 h, read-out: IC50 (μM) (mean ± SD)
# Experimental: as §4, §5
# [8] = test system: human breast cancer cells MDA-MB-435 transplanted on nude mice; conditions: mouse, in vivo
# Experimental: Dosage: among 3 groups, the dosages of L538 were set at 5, 10 and 20 mg/kg as the high, middle and low dosages, respectively, administrating intravenously 3 times a week; while MMC was administrated intravenously at the first day whit a dosage of 5 mg/kg.
# Animals: BALB/CA nude mice, male, 40-45 days old, body weight: 18±1 g, provided by Shanghai Institute of Materia Medica, Chinese Academy of Sciences. […] Animal number in each group: 7 in negative control group, and 4 in administration group.
# The amount of inoculated cells was 5×10^6. After the transplanted tumor was formed by inoculation, it was used after passed for 3 generations in nude mice.
# Experimental procedure: tumor tissue in productive phase was cut into nubs of about 1.5 mm^3. Under sterile conditions, the nubs were inoculated subcutaneously in right axillary fossa of the nude mice. The diameters of the transplanted tumors on nude mice were measured by a vernier caliper. When the tumors grew up to 100-200 mm^3, the animals were divided randomly into groups. Mice in experimental groups were administered intravenously every other day. […] The total administration duration was 3 weeks. For the positive control, MMC, Mice were administered intravenously once at the first day of a week, and the total administration duration was 3 weeks. Mice in control groups were administrated physiologic saline in equivalent amount. The diameter of the tumor and weight of mice were measured twice a week. The equation for calculating the TV (tumor volume) was as follows: TV=½×a×b^2, • wherein, a is length and b is width. RTV (relative tumor volume) was calculated based on the measured results, and the equation thereof was as follows: RTV=Vt/V0 • wherein, V0 is the tumor volume measured when the mice were grouped (i.e. d0), and Vt is the tumor volume at each measurement. The evaluation index for the antitumor activity was the relative tumor proliferation rateT/C (%).
# The calculation equation was as follows: T/C(%)=(TRTV/CRTV)×100, • wherein, TRTV is the RTV of therapeutic Group and CRTV is RTV of negative control group.
compound,measurement,setting,value
CO[C@@H](C(=O)N[C@@H](C)C(=O)NCCOC(=O)C12CC3CC(CC(C3)C1)C2)[C@H](O)[C@@H](O)[C@H](O)/C=C/C(C)(C)C [Compound L538],IC50,[1]; read-out: Cell Survival Rate IC50,490 nM
same,IC50,"[1]; Homo sapiens, note: MDA-MB-435S, read-out: IC50 (MDA-MB-435)",494 ± 139 nM
same,IC50,"[1]; Homo sapiens, read-out: Cell Survival Rate IC50",430 nM
same,IC50,[2],133 ± 25 nM
same,IC50,[3],98 ± 9 nM
same,IC50,[4],> 20 µM
same,IC50,[5],0.09 ± 0.01 µM
same,IC50,[6],0.58 ± 0.04 µM
same,IC50,[7],0.17 ± 0.06 µM
same,dead nude mice,[8],none of the experimental groups had dead nude mice
